Results on nine compounds are retold here after patent US20260049078A1, “DIFLUORO- AND TRIFLUORO-ACETYL HYDRAZIDES AS SELECTIVE HDAC6 INHIBITORS” (ITALFARMACO S.P.A., priority 2022, published 2026).

One assay addresses recombinant human HDAC6 (Homo sapiens (Human), UniProt Q9UBN7). Briefly: Enzyme inhibitory activity assay on HDAC6. The following applies: 30 minutes preincubation at 25° C. The class given is biochemical. How it is done: (§1) For each test compound, 100× concentrated DMSO solutions at 8 doses were prepared and then diluted in assay buffer (25 mM Tris-HCl, pH 8, 130 mM NaCl, 0.05% Tween-20, 10% Glycerol) to obtain 5× concentrated solutions in relation to the final concentrations (typical final concentration range—6.4-200000 nM or 0.18-50000 nM, final DMSO content—1%). Then 10 μL solution of each test compound concentration were placed on a 96-well plate in triplicate and 15 μL of 3.33× concentrated enzyme solution in the assay buffer containing 3.33× concentrated BSA (final BSA concentration 1 mg/mL) and, in case of HDAC6, 3.33× concentrated TCEP (final TCEP concentration—200 μM) were added to each well. After a period of preincubation at 25° C. (30 minutes for HDAC6 and 120 minutes for HDAC1), 25 μL of solution containing the substrate were added. As substrate, FLUOR DE LYS® deacetylase substrate (Enzo Life Sciences, cat: BML-KI104, FdL), FLUOR DE LYS®-Green substrate (Enzo Life Sciences, cat: BML-KI572, FdL_G) or Boc-Lys(Tfa)-AMC (Bachem, cat: 4060676.005, Tfal)—2× concentrated solution in assay buffer were used. Following a reaction period (30 minutes at 25° C.), 50 μL of the development solution consisting of concentrate FLUOR DE LYS® developer I (Enzo Life Sciences, ca: BML-KI105), diluted 200 times in buffer (50 mM Tris-HCl, pH 8, 137 mM NaCl, 2.7 mM KCl, 1 mM MgCl2) plus 2 μM TSA was added and, after 25 minutes at room temperature in the dark, using the Victor 1420 Multilabel Counter Perkin Elmer Wallac instrument, the fluorescence reading was carried out (excitation/emission: 485/535 nM—Fluor de Lys Green, 355/460 nM—Tfal, Fluor de Lys).
(§2) Enzymatic activity on recombinant human HDAC6 and HDAC1 was evaluated (Table 2) for each synthesized compound.

Another assay deals with recombinant human HDAC1 (Homo sapiens (Human), UniProt Q13547). Briefly: Enzyme inhibitory activity assay on HDAC1. The class given is biochemical. The conditions noted are these: 120 minutes preincubation at 25° C. The procedure:
as §1, §2

The subject of a further assay is SH-SY5Y cells. Briefly: In vitro α-tubulin acetylation in undifferentiated SH-SY5Y cells. The class given is cell-based. The conditions noted are these: overnight, @1uM. The procedure:
SH-SY5Y cells (ATCC, cod. CRL-2266) are plated in optical optimized 96-well black plates (Perkin Elmer, cod. 6055302) at 5000 cells/well in 100 μl/well of growth medium (DMEM/F12 (1:1)+10 mM hepes+100 units/mL of penicillin+100 μg/mL of streptomycin+10% of inactivated Foetal calf serum (FCS, Hyclone)).
After 24 h of seeding, cells are incubated overnight with the selected molecules at 0.1-1-10 μM. ACY1083 and Tubastatin A, at the same doses, are tested as positive controls of α-Tubulin acetylation, while untreated cells are incubated with 0.01% DMSO and indicated as CTRL DMSO.
At the end of the incubation, cells are fixed adding 100 μL/well of formaldehyde 8% in PBS (final formaldehyde concentration 4% in 200 μL/well) directly in the 100 μL/well of medium, for 30 min at RT. The fixing solution is carefully removed, and wells are washed twice with PBS for 10 min each. Fixed cells are kept in PBS at 4° C. until staining.
The day of the staining experiment, the fixed cells are incubated 60 min with the blocking buffer (PBS with 5% FCS+0.3% Triton™ X-100). While blocking, primary antibodies are prepared by diluting 1:200 the α-Tubulin Alexa Fluor 488 Conjugate (Cell Signaling, cod. 5063) antibody and 1:50 Acetyl-α-Tubulin Alexa Fluor 647 Conjugate (Cell Signaling, cod. 81502) antibody in the Antibody Dilution Buffer (PBS with 1% BSA+0.3% Triton™ X-100). Once the blocking solution is aspirated, the diluted primary antibodies are applied and incubated overnight at 4° C. The next day, cells are rinsed twice with PBS (10 min each), incubated 5 min with 300 nM DAPI in PBS, and then rinsed twice with PBS (10 min each). For each treatment, 3 wells are stained.
Images of the stained cells are acquired by means of the IN Cell Analyzer 2500 HS Instrument, using: far red channel for Acetyl-α-Tubulin staining (exposure 0.02 sec), green channel for α-Tubulin staining (exposure 0.02 sec), and blue channel for DAPI (nuclei) staining. For each well, 10 images are acquired.
Images of stained cells are analysed with the InCarta software (Molecular Devices) for obtaining fluorescence intensity considering whole cells. For each treatment, mean values of Cell intensity—Bckg (Cell), for both staining, are obtained using the InCarta raw data by FOV (Field of View). Results are expressed as fold increase of the ratio of acetylated tubulin and total tubulin towards control (CTRL DMSO).

Sequence of recombinant human HDAC6 (Q9UBN7 whole entry): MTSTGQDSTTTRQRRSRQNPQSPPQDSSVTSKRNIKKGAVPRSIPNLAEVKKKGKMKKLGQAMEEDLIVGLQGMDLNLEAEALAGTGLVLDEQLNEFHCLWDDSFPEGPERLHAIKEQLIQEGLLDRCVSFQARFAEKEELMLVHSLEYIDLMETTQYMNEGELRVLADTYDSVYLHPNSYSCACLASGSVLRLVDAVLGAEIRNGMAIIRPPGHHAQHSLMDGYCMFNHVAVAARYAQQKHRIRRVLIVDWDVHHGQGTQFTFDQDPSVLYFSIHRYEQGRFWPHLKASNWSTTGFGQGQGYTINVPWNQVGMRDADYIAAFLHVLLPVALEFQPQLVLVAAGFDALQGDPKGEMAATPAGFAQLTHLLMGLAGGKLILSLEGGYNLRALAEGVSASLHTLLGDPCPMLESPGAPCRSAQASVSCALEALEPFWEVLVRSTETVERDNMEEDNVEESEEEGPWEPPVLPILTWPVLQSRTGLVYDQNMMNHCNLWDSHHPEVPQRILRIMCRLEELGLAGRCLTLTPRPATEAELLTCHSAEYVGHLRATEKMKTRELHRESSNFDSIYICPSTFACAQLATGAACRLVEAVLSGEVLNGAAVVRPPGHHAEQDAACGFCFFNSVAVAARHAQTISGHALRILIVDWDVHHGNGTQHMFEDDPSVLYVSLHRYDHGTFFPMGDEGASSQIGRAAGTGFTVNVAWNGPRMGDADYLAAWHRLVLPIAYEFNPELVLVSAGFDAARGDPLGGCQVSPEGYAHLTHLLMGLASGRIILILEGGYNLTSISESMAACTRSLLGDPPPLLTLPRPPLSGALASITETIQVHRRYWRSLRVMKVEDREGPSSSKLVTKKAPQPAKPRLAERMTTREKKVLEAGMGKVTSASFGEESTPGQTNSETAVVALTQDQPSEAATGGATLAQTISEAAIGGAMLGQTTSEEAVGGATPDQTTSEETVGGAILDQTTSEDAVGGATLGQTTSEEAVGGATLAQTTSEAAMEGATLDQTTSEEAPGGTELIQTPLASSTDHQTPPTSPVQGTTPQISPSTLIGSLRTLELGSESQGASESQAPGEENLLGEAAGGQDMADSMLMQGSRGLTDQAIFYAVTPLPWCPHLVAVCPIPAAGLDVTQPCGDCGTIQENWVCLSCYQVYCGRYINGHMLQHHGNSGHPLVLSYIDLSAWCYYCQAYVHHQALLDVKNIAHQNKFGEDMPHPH
Sequence of recombinant human HDAC1 (Q13547 whole entry): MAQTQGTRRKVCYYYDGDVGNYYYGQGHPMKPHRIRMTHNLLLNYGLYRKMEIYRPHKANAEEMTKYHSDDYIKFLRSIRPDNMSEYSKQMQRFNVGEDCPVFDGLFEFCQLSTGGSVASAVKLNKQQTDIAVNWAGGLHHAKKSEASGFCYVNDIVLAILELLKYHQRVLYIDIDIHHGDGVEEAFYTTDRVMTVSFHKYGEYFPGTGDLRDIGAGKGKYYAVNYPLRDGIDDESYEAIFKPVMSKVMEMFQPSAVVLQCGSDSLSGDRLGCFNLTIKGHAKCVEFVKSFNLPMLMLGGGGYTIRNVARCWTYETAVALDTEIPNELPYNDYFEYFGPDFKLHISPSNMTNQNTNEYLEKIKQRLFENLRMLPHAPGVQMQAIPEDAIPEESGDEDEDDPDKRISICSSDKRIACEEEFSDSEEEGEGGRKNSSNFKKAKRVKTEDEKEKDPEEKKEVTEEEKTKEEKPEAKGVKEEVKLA

In general, IC50 refers to the concentration that inhibits the measured activity by half. For the compound `FC(F)c1nnc(-c2ccc(Cn3cc(-c4ccc(NC5=NCCN5)cc4)nn3)cc2)o1` [Compound 1-A], the IC50 at recombinant human HDAC6 was 14 nM; on recombinant human HDAC1 it was more than 100000 nM. The “TubAc SH-SY5Y cells fold increase of the ratio of acetylated tubulin and total tubulin towards control” value with SH-SY5Y cells turned out to be 2 fold.
As to `Nc1nc2ccc(-c3cn(Cc4ccc(-c5nnc(C(F)F)o5)cc4F)nn3)cc2s1` [Compound 2-A], on recombinant human HDAC1, the 50% inhibitory concentration (IC50) is more than 100000 nM. Moreover, the “TubAc SH-SY5Y cells fold increase of the ratio of acetylated tubulin and total tubulin towards control” value in the assay with SH-SY5Y cells was 6.2 fold.
In the case of `FC(F)c1nnc(-c2ccc(Cn3cc(-c4ccccc4)nn3)nc2)o1` [Compound 13-A], the IC50 was 32 nM at recombinant human HDAC6 and more than 100000 nM at recombinant human HDAC1.
On to `Fc1ccccc1-c1cn(Cc2ccc(-c3nnc(C(F)F)o3)cn2)nn1` [Compound 14-A], for which the half-inhibitory concentration (IC50) at recombinant human HDAC6 was 22 nM; on recombinant human HDAC1, more than 100000 nM. The “TubAc SH-SY5Y cells fold increase of the ratio of acetylated tubulin and total tubulin towards control” value with SH-SY5Y cells was determined as 6.3 fold.
Consider `FC(F)c1nnc(-c2ccc(Cn3cc(-c4ccccn4)nn3)nc2)o1` [Compound 20-A], for which the IC50 was 60 nM at recombinant human HDAC6 and more than 100000 nM at recombinant human HDAC1.
For `Nc1nc2ccc(-c3cn(Cc4ccc(-c5nnc(C(F)F)o5)cc4)nn3)cc2s1` [Compound 32-A], the values for the IC50 on recombinant human HDAC6 and at recombinant human HDAC1 were 26 nM and more than 100000 nM, respectively. Also, the “TubAc SH-SY5Y cells fold increase of the ratio of acetylated tubulin and total tubulin towards control” value in the assay with SH-SY5Y cells amounted to 6.3 fold.
The corresponding values for `Nc1nc2ccc(-c3cn(Cc4ccc(-c5nnc(C(F)F)o5)cc4Cl)nn3)cc2s1` [Compound 37-A] are 61 nM, more than 100000 nM and 6 fold.
Take `Nc1nc2ccc(-c3cn(Cc4ccc(-c5nnc(C(F)F)o5)cn4)nn3)cc2s1` [Compound 38-A]: the IC50 on recombinant human HDAC6 was 8 nM; at recombinant human HDAC1, more than 100000 nM. Besides, the “TubAc SH-SY5Y cells fold increase of the ratio of acetylated tubulin and total tubulin towards control” value in the assay on SH-SY5Y cells came out at 10 fold.
Take `Nc1nc2ccc(C3CN(Cc4ccc(C(=O)NNC(=O)C(F)F)s4)N=N3)cc2s1` (stereo not drawn) [Compound 48-A]: the IC50 on recombinant human HDAC6 was 7 nM; on recombinant human HDAC1, more than 100000 nM. The “TubAc SH-SY5Y cells fold increase of the ratio of acetylated tubulin and total tubulin towards control” value with SH-SY5Y cells is 15.7 fold.
